The record followed here is ChEMBL document CHEMBL4402557, “Nidufexor (LMB763), a Novel FXR Modulator for the Treatment of Nonalcoholic Steatohepatitis” (J Med Chem, 2020).

pEC50: −log10 of the molar value. Calls of active or inactive are those of the source. The calls are words filed in the database; no cut-off is given here.

A short description of series [1]: Metabolic stability in rat liver microsomes assessed as hepatic extraction ratio. To be noted: read-out: ERH. It is filed as ADME, Microsome.
Series [2] can be described thus: Volume of distribution at steady state in dog at 0.5 mg/kg, iv. The class given is ADME, organism-based, Canis lupus familiaris. The settings on record: in vivo, read-out: Vdss.
Series [3] can be described thus: Metabolic stability in human liver microsomes assessed as hepatic extraction ratio. It is filed as ADME, Microsome. The settings on record: read-out: ERH.
Series [4] addresses T1, Bile acid receptor (Rattus norvegicus) (UniProt Q62735).
T1 sequence (whole entry): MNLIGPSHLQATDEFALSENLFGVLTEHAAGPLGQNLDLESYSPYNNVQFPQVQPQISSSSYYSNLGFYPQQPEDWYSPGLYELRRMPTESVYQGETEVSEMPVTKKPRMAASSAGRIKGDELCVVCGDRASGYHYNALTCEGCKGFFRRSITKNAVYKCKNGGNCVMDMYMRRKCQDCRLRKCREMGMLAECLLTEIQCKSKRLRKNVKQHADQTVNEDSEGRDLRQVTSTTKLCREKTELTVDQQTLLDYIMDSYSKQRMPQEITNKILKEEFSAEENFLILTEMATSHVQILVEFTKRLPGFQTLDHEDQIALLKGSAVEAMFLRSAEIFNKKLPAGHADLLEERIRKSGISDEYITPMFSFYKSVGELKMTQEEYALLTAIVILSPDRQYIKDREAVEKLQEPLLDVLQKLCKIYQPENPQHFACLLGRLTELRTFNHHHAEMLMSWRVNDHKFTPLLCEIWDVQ
Nature of the series: Agonist activity at FXR in rat primary hepatocytes assessed as increase in SHP mRNA level incubated for 24 hrs by qRT-PCR analysis relative to tropifexor. It is filed as cell-based. A general note: Quantitative PCR measures a nucleic acid by following its amplification.

In series [5] the target is T1, Bile acid receptor (Rattus norvegicus). Nature of the series: Agonist activity at FXR in rat primary hepatocytes assessed as increase in BSEP mRNA level incubated for 24 hrs by qRT-PCR analysis relative to tropifexor. It is filed as cell-based.
A short description of series [6]: Half life in mouse at 3 mg/kg, iv. It is filed as ADME, organism-based. The settings on record: in vivo.
A further series has as its target T2, Glucocorticoid receptor (Homo sapiens, UniProt P04150).
T2 sequence (P04150 whole entry): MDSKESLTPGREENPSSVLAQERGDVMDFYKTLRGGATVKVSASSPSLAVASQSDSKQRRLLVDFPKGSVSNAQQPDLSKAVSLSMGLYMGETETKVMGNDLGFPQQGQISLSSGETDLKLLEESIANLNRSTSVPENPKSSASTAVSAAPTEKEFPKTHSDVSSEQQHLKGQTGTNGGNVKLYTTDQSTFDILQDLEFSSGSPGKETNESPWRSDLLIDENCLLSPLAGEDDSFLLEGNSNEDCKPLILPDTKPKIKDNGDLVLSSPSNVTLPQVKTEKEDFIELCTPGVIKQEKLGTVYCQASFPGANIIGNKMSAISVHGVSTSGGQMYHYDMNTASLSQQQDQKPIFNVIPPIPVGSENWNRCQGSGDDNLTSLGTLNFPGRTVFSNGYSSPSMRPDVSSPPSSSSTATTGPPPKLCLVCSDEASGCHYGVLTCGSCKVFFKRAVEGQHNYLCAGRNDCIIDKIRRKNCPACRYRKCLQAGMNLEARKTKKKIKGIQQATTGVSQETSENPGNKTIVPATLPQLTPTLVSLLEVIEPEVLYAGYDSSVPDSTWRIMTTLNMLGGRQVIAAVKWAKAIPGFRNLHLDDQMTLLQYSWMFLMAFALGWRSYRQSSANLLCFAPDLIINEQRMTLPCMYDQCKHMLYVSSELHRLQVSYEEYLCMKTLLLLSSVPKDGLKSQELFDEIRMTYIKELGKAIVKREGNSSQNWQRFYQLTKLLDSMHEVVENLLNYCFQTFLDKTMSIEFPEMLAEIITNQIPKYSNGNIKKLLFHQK
In words: Agonist activity at Glucocorticoid receptor (unknown origin) incubated for 2 hrs by TR-FRET assay. In general terms: In TR-FRET formats the signal depends on donor and acceptor labels being close together.

Series [7] in a line: Cmax in Wistar rat at 100 mg/kg, po. It is filed as ADME, organism-based. Set-up: dose 100 mg/kg, route oral. The settings on record: in vivo.
A short description of series [8]: Cmax in Wistar rat at 3 mg/kg, po. The class given is ADME, organism-based. Set-up: dose 3 mg/kg, route oral. The settings on record: in vivo.
The subject of series [9] is Mus musculus. Nature of the series: Anti Steato-hepatitic activity in STZ/HFD induced oral dosed C57BL/6J mouse STAM model assessed as reduction in inflammatory cell infiltration administered via oral gavage once daily for 3 weeks and measured on 9 week by H and E staining based assay. The class given is functional, organism-based.
The target of another series is T3, Estrogen receptor (Homo sapiens, UniProt P03372).
T3 sequence (P03372 whole entry): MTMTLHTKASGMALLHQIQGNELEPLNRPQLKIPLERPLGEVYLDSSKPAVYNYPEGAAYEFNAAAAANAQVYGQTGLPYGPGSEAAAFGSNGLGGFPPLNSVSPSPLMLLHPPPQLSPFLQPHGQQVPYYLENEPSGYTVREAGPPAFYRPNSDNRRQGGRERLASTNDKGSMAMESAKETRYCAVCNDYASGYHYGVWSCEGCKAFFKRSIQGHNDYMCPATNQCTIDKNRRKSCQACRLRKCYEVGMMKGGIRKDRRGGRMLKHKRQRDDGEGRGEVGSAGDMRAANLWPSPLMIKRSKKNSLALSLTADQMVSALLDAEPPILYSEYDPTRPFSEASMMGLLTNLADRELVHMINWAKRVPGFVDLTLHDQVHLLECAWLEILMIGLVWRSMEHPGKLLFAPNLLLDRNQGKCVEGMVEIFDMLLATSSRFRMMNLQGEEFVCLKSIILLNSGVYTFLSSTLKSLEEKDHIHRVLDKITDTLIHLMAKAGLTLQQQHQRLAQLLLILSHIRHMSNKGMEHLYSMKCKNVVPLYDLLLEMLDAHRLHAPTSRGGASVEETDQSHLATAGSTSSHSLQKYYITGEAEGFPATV
Nature of the series: Agonist activity at GAL4-fused ERalpha (unknown origin) expressed in HEK293T cells incubated for 24 by BrightGlo reagent based assay. It is filed as cell-based.

Series [10] can be described thus: Lipophilicity, logD of compound at pH 6.8. It is filed as physicochemical. To be noted: buffer.
The species named for series [11] is Mus musculus. In words: Anti Steato-hepatitic activity in C57BL/6J mouse STAM model assessed as change in Cyp8b1 gene level in liver. The class given is functional, organism-based.
The nature of series [12]: Oral bioavailability in Wistar rat at 100 mg/kg. It is filed as ADME, organism-based. The settings on record: in vivo.
Another series addresses T4, Bile acid receptor (Homo sapiens, UniProt Q96RI1).
T4 sequence (Q96RI1 whole entry): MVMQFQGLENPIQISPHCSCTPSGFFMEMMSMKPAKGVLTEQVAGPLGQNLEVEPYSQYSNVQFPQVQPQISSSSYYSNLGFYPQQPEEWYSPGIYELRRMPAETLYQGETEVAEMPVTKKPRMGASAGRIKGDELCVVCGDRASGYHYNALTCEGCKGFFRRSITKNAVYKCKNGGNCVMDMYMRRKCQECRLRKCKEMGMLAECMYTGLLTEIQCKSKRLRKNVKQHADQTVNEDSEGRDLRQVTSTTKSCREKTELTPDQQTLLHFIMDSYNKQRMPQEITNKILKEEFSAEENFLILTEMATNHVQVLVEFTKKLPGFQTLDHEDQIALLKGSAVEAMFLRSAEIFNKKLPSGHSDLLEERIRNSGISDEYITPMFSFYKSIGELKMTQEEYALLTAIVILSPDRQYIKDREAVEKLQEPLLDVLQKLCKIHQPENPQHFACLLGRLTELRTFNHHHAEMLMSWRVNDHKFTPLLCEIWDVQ
In words: Agonist activity at GST-tagged human FXR-LBD (193 to 472 residues) using biotinylated SRC-1 peptide as substrate incubated for 1 hrs by HTRF assay.

One may read the half-life as the time in which the quantity being followed falls by half. Higher therefore signals slow loss. By pEC50 is commonly meant −log10 of the EC50, conventionally taken in molar units. Low readings indicate a large EC50, high ones a small EC50. One may read the Cmax as the maximum level reached in the sampled fluid or tissue. One may read the logD as the decadic logarithm of the distribution of all forms, ionised or not, between an organic phase and buffer at a given pH. Usually bioavailability stands for the share of a dose that reaches the circulation, judged against a reference dose that is usually intravenous. Turning to `Cn1nc(C(=O)N(Cc2ccccc2)Cc2ccc(C(=O)O)cc2)c2c1-c1cc(Cl)ccc1OC2` [NIDUFEXOR], the hepatic extraction ratio is less than 0.18 in series [1] and less than 0.21 in series [3]. The Vd in series [2] worked out at 1.1 L/kg. For the same molecule, the Activity was 65% in [4], 3.7% in series [5] and “Dose-dependent effect” in the series on Mus musculus [9]. The molecule further showed a half-life in [6] of 4.5 h. Moreover, the figures for the pEC50 on Glucocorticoid receptor, at Estrogen receptor and on Bile acid receptor were less than 4.52, less than 5.00 and 8.15, respectively. The results for the Cmax in series [7] and in series [8] were 80.9 µM and 4.5 µM, respectively. In [10], the logD was determined as 2.7. For the same molecule, the outcome in the series listed under Mus musculus [11] was Active. Moreover, the bioavailability in [12] came out at 82%.
